Where “and” joins values, the source holds several entries; their conditions need not be identical. Equal values may be shown once. Toxic doses and inconclusive results are not listed. Rule as the data show it: active = T/C of 150% or more; inactive = T/C below 125%.
System: L1210 leukemia ip in BDF1 mice, survival T/C
Test: NCI In Vivo Anticancer Drug Screen. Data for tumor model L1210 Leukemia (intraperitoneal) in B6D2F1 (BDF1) mice
Details: endpoint: mean survival time, higher = longer survival
Outline: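 Each compound was tested against a transplantable tumor grown in mice. The endpoint was survival, with treated animals benchmarked against vehicle controls as a simple ratio.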

[1] = dose: 100.0 mg/kg/injection, schedule: Q04DX002 (ip), vehicle: saline with Tween-80
[2] = dose: 200.0 mg/kg/injection, schedule: Q04DX002 (ip), vehicle: saline with Tween-80
[3] = dose: 400.0 mg/kg/injection, schedule: Q04DX002 (ip), vehicle: saline with Tween-80
[4] = dose: 100.0 mg/kg/injection, schedule: Q01DX009 (ip), vehicle: Klucel (hydroxypropylcellulose) (HPC)
[5] = dose: 100.0 mg/kg/injection, schedule: Q04DX003 (ip), vehicle: other
[6] = dose: 200.0 mg/kg/injection, schedule: Q04DX003 (ip), vehicle: other
[7] = dose: 200.0 mg/kg/injection, schedule: Q01DX009 (ip), vehicle: Klucel (hydroxypropylcellulose) (HPC)
[8] = dose: 400.0 mg/kg/injection, schedule: Q01DX009 (ip), vehicle: Klucel (hydroxypropylcellulose) (HPC)
[9] = dose: 100.0 mg/kg/injection, schedule: Q01DX001 (ip), vehicle: saline
[10] = dose: 200.0 mg/kg/injection, schedule: Q01DX001 (ip), vehicle: saline
[11] = dose: 400.0 mg/kg/injection, schedule: Q01DX001 (ip), vehicle: saline
[12] = dose: 100.0 mg/kg/injection, schedule: Q04DX003 (ip), vehicle: saline
[13] = dose: 100.0 mg/kg/injection, schedule: Q01DX009 (ip), vehicle: saline

Measured: T/C

[O-][n+]1onc(-c2ccccn2)c1-c1ccccn1
inactive: [1] 95 % of control | [2] 100 % of control | [3] 103 % of control

CSc1cccc(NC(=S)NC(=O)c2ccccc2)c1
inactive: dose: 25.0 mg/kg/injection, schedule: Q01DX009 (ip), vehicle: Klucel (hydroxypropylcellulose) (HPC) 96 % of control | dose: 50.0 mg/kg/injection, schedule: Q01DX009 (ip), vehicle: Klucel (hydroxypropylcellulose) (HPC) 94 % of control | [4] 91 % of control

NC(C[Se][Se]CC(N)C(=O)O)C(=O)O (stereo unspecified)
inactive: dose: 1.56 mg/kg/injection, schedule: Q04DX002 (ip), vehicle: saline 103 % of control | dose: 3.12 mg/kg/injection, schedule: Q04DX002 (ip), vehicle: saline 103 % of control | dose: 6.25 mg/kg/injection, schedule: Q04DX002 (ip), vehicle: saline 103 % of control | dose: 12.5 mg/kg/injection, schedule: Q04DX002 (ip), vehicle: saline 88 % of control

CCOc1c(Br)cc(Br)cc1C=C(C#N)C#N
inactive: dose: 25.0 mg/kg/injection, schedule: Q01DX009 (ip), vehicle: other 102 % of control | dose: 50.0 mg/kg/injection, schedule: Q01DX009 (ip), vehicle: other 98 % of control | [5] 102 % of control | [6] 108 % of control

CCOC(=O)c1ccc(NC(=O)Nc2cc(C(F)(F)F)ccc2Cl)cc1
inactive: [4] 100 % of control | [7] 104 % of control | [8] 95 % of control

N#CCc1cc2c(cc1[N+](=O)[O-])OCO2
inactive: [9] 97 % of control | [10] 87 % of control | [11] 97 % of control

CC(C)CCC1(C)CC(=O)Nc2ccccc21 (stereo unspecified)
inactive: [9] 97 % of control | [10] 94 % of control | [11] 95 % of control

NC1(c2ccccc2)CC1
inactive: dose: 25.0 mg/kg/injection, schedule: Q04DX002 (ip), vehicle: Klucel (hydroxypropylcellulose) (HPC) 90 % of control | dose: 50.0 mg/kg/injection, schedule: Q04DX002 (ip), vehicle: Klucel (hydroxypropylcellulose) (HPC) 93 % of control | dose: 100.0 mg/kg/injection, schedule: Q04DX002 (ip), vehicle: Klucel (hydroxypropylcellulose) (HPC) 95 % of control and 98 % of control

CCCC(=O)c1ccc2oc3ccccc3c2c1
inactive: [4] 100 % of control | dose: 100.0 mg/kg/injection, schedule: Q04DX003 (ip), vehicle: Klucel (hydroxypropylcellulose) (HPC) 102 % of control | [7] 94 % of control | dose: 200.0 mg/kg/injection, schedule: Q04DX003 (ip), vehicle: Klucel (hydroxypropylcellulose) (HPC) 102 % of control | [8] 96 % of control | dose: 400.0 mg/kg/injection, schedule: Q04DX003 (ip), vehicle: Klucel (hydroxypropylcellulose) (HPC) 98 % of control

CC(C)C(C(=O)O)C(=O)O
inactive: [9] 102 % of control | [10] 104 % of control | [11] 112 % of control

COC(F)(F)C(Cl)Cl
inactive: [9] 95 % of control | [10] 101 % of control | [11] 95 % of control

O=[N+]([O-])c1ccc(Oc2cccc(Cl)c2)c(Cl)c1
inactive: [9] 112 % of control | [10] 109 % of control | [11] 105 % of control

CC(=O)Nc1ccc(OC(C)=O)cc1[N+](=O)[O-]
inactive: [9] 105 % of control | [10] 102 % of control | [11] 102 % of control

O=C(C[n+]1cccc(CO)c1)c1ccc(-c2ccc(C(=O)C[n+]3cccc(CO)c3)cc2)cc1
inactive: dose: 0.05 mg/kg/injection, schedule: Q04DX003 (ip), vehicle: saline 105 % of control | dose: 0.1 mg/kg/injection, schedule: Q04DX003 (ip), vehicle: saline 100 % of control | dose: 0.2 mg/kg/injection, schedule: Q04DX003 (ip), vehicle: saline 108 % of control

CCO/N=C(/C)C(C)SC#N (stereo unspecified)
inactive: dose: 10.0 mg/kg/injection, schedule: Q01DX001 (ip), vehicle: saline 97 % of control | dose: 20.0 mg/kg/injection, schedule: Q01DX001 (ip), vehicle: saline 105 % of control

CC(C)C1NC(=O)C(Cc2c[nH]c3ccccc23)NC1=O (stereo unspecified)
inactive: [9] 101 % of control | [10] 101 % of control | [11] 91 % of control

COC(=O)C1=CC(C(=O)OC)C(C(=O)OC)N2C=CSC2=C1 (stereo unspecified)
inactive: dose: 25.0 mg/kg/injection, schedule: Q04DX003 (ip), vehicle: saline 93 % of control | dose: 50.0 mg/kg/injection, schedule: Q04DX003 (ip), vehicle: saline 100 % of control | [12] 96 % of control

O=C(Nc1ccc(C2=NCCN2)cc1)c1cccc(C(=O)Nc2ccc(C3=NCCN3)cc2)c1Cl
inactive: dose: 4.5 mg/kg/injection, schedule: Q01DX Z (ip), vehicle: carboxymethylcellulose (CMC) 105 % of control | dose: 9.0 mg/kg/injection, schedule: Q01DX Z (ip), vehicle: carboxymethylcellulose (CMC) 117 % of control | dose: 62.0 mg/kg/injection, schedule: Q01DX Z (oral), vehicle: carboxymethylcellulose (CMC) 109 % of control | dose: 125.0 mg/kg/injection, schedule: Q01DX Z (oral), vehicle: carboxymethylcellulose (CMC) 118 % of control | dose: 250.0 mg/kg/injection, schedule: Q01DX Z (oral), vehicle: carboxymethylcellulose (CMC) 118 % of control | dose: 500.0 mg/kg/injection, schedule: Q01DX Z (oral), vehicle: carboxymethylcellulose (CMC) 98 % of control
active: dose: 18.0 mg/kg/injection, schedule: Q01DX Z (ip), vehicle: carboxymethylcellulose (CMC) 155 % of control | dose: 25.0 mg/kg/injection, schedule: Q01DX Z (ip), vehicle: carboxymethylcellulose (CMC) 211 % of control | dose: 37.0 mg/kg/injection, schedule: Q01DX Z (ip), vehicle: carboxymethylcellulose (CMC) 184 % of control

CSc1cccc(NC2=NCCO2)c1
inactive: dose: 50.0 mg/kg/injection, schedule: Q04DX002 (ip), vehicle: saline with Tween-80 103 % of control | [1] 98 % of control | [2] 88 % of control | [3] 95 % of control

CCOCCCN
inactive: dose: 50.0 mg/kg/injection, schedule: Q01DX009 (ip), vehicle: saline 103 % of control | [13] 95 % of control | [12] 100 % of control | dose: 200.0 mg/kg/injection, schedule: Q04DX003 (ip), vehicle: saline 106 % of control

O=CO
inactive: [9] 100 % of control | [10] 98 % of control | [11] 93 % of control

O=C1ON(c2ccccc2)C(c2ccccc2)N1c1ccc([N+](=O)[O-])cc1 (stereo unspecified)
inactive: dose: 50.0 mg/kg/injection, schedule: Q01DX001 (ip), vehicle: saline 106 % of control | [9] 114 % of control | [10] 100 % of control | [11] 112 % of control

Cc1ccc2nc(-c3ccc(N)cc3)sc2c1S(=O)(=O)O
inactive: [13] 100 % of control | dose: 100.0 mg/kg/injection, schedule: Q04DX002 (ip), vehicle: saline 92 % of control | dose: 200.0 mg/kg/injection, schedule: Q01DX009 (ip), vehicle: saline 96 % of control | dose: 200.0 mg/kg/injection, schedule: Q04DX002 (ip), vehicle: saline 105 % of control | dose: 400.0 mg/kg/injection, schedule: Q01DX009 (ip), vehicle: saline 110 % of control | dose: 400.0 mg/kg/injection, schedule: Q04DX002 (ip), vehicle: saline 99 % of control

CC(=O)Oc1cc2c(cc1OC(C)=O)C(Br)CCCC2=O (stereo unspecified)
inactive: dose: 100.0 mg/kg/injection, schedule: Q01DX009 (ip), vehicle: other 96 % of control | [5] 94 % of control | dose: 200.0 mg/kg/injection, schedule: Q01DX009 (ip), vehicle: other 93 % of control | [6] 102 % of control | dose: 400.0 mg/kg/injection, schedule: Q01DX009 (ip), vehicle: other 104 % of control | dose: 400.0 mg/kg/injection, schedule: Q04DX003 (ip), vehicle: other 104 % of control
